# Test results published in patent US12617818B2, “Compositions and methods for modulating myosin subfragment-2 coiled coil stability and methods for using them” (UNIVERSITY OF NORTH TEXAS, priority 2020, dated 2026).
# Assays:
# [1] = target: skeletal muscle myosin S2 peptide (MYH2) (Homo sapiens, UniProt Q9UKX2); assay: GFS, uncoiling of skeletal myosin S2 peptide dimer; format: biochemical; design: host or cells: chemical synthesis; conditions: for Force required to uncoil S2 molecule: length 10 nm, in presence of the anti-S2 peptide, ± SEM
# skeletal muscle myosin S2 peptide (MYH2), sequence (Q9UKX2 918-953 limits assumed): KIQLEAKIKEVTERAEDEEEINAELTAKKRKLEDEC
# From the text: 3-aminopropyltriethoxysilane, acetone, coupling buffer (0.01 M pyridine in water with pH 6.0), 5% glutaraldehyde, quenching solution (1 M glycine in water with pH 7.0), blocking buffer (0.01 M Tris, 0.1% sodium azide, 0.1% bovine serum albumin, 0.15 M sodium chloride, and 0.001 M ethylenediaminetetraacetic acid with pH 7.0), wash buffer (0.01 M Tris, 0.1% sodium azide, 0.15 M sodium chloride, and 0.001 M ethylenediaminetetraacetic acid with pH 7.0) low salt buffer (0.1 M potassium chloride, 0.02 M imidazole, 5 mM magnesium chloride, with pH 7.0), 1-ethyl-3-(3-dimethyaminopropyl) carbodiimide, N-hydroxysuccinamide, iodoacetamide-succinimidyl ester, 8M urea solution (50 mM imidazole and 0.1 mM tris (2-carboxyethyl) phosphine with pH 7.0) monodisperse silica beads, glass slides, glass coverslips, vacuum grease, rabbit skeletal myosin, purified actin (G-actin), 1 μM human β-cardiac myosin S2 peptide, 1 μM human β-cardiac mutants myosin S2 peptide (E930del and E924K), 1 μM human skeletal myosin S2 peptide, 1 μM human smooth myosin S2 peptide, stabilizer peptide, and destabilizer peptide. A light microscope with an objective lens of 10× was mounted on an alt-azimuthal mount. A digital video camera of Sony, XCD-V60 was replaced with the ocular lenses. Extension springs on steel bracket held the alt-azimuthal mount suspended.
# Gravitational force spectroscopy (GFS), is a single molecule force spectroscopy that utilizes gravitational force to measure absolute length of a single molecule at the given force calculated by the density of the bead suspending the molecule. This technique was discovered and developed in Root lab, which measures the forces in piconewton and sub-piconewton levels. Other than absolute length of a molecule, GFS measures force range required to uncoil, stretch or extend the molecule yielding a force-distance profile for the suspended molecule. Besides that, based on the force-distance profile, number of amino acids within the molecule can be calculated. […] The GFS allowed to test the flexibility or stability of a single molecule of myosin S2 peptide and also for the S2 peptides treated with anti-S2 peptides. Flexibility of myosin S2 is not dependent on assembly myosin as a thick filament or myosin in its single molecule form. The flexibility of myosin S2 region was reported to be similar in single molecule form or myosin in a thick filament assembly thus it could be conceived that the changes seen on flexibility of myosin S2 in presence of anti-S2 peptides would correlate to changes in myosin S2 flexibility for myosin in a thick filament form (Singh et al., 2018). The schematic diagram of GFS is shown below (schematic diagrams of GFS which has two modes: (FIG. 15) free-fall mode, (FIG. 16) rotational mode.
# Free fall mode, another measurement variant of GFS which allows the user to get a force distance profile on a single molecule experiencing the gravitational force. Free fall mode allows a variable force by the virtue of gravity to be exerted on a single molecule. The GFS setup, light microscope with mounted camera on spring on alt-azimuthal platform, can be dropped. The start of free-fall mode force applied to the bead is zero or close to zero. […] As the platform goes towards equilibrium, trace of the acceleration decays. During the free fall mode, GFS has a single molecule which is suspended within an immobile edge and mobile bead will now experience the variable force which would be calculated by the product of mass of the bead and the acceleration of the GFS.
# The product of the GFS acceleration and the mass of the bead will provide a force trace for the single molecule tethered between the immobile edge and mobile bead. The image processing would provide distance trace for the single molecule experiencing the free fall by the GFS. When this force trace is aligned with distance trace will yield the extension or the stretch experience by the single molecule under variable forces. […]
# [2] = target: T1, cardiac muscle myosin S2 mutant peptide E930del (MYH7) (Homo sapiens, UniProt P12883, DEL930-930); assay: FRET of E930del mutant cardiac myosin S2 peptide dimer with stabilizer; format: binding
# T1 construct: cardiac muscle myosin S2 peptides region 921 to 939; host or cells: chemical synthesis
# From the text: This mutation cause mechanical instability and unstable coiled coil. Again the sequence of this mutation was obtained using PDB. An 18 residue peptide of this region was chemically synthesized. Generated amino acid sequence used is as follow: • E930del: NH2-[…]—COOH (SEQ ID NO:8)
# Resonance energy probes (donor and acceptor) were covalently attached to synthetic myosin S2 peptides of cardiac muscle, E930del cardiac muscle, E924K cardiac muscle, smooth muscle, and skeletal muscle (Aboonasrshiraz, N., 2020).
# Acceptor probe was conjugated to muscle myosin S2 peptides at N-terminus. Muscle myosin S2 peptides were dissolved in 20 mM HEPES buffer at pH 8.0. And FITC was dissolved in few drops of N, N dimethyl formamide. Lastly, FITC and muscle myosin S2 peptide was reacted together in 1 to 1 molar ratio and was let to react for 120 minutes at room temperature. The FITC conjugated S2 peptides were purified using […]. […]
# In FRET assay, Fluorescein Isothiocyanate (FITC) functioned as fluorescent acceptor probe and Terbium Diethylene Triamine Pentaacetic Acid-Cytosine (Lanthanide-DTPA-Cytosine) functioned as donor probe. […] Lifetime of donor probe was measured in milliseconds.
# In FRET assay, like E924K, Edel930 was treated with different concentrations of the stabilizer. […] Calculated separation distance in presence of the stabilizer peptide was 3.38 nm.
Force required to uncoil S2 molecule [1],Force required to uncoil S2 molecule ([1]; listed as destabilizer peptide),decrease of force required to uncoil the coiled coil ([1]; vs absence of anti-S2 peptide),TD (donor lifetime without acceptor) [2],increase of force required to uncoil the coiled coil ([1]; vs absence of anti-S2 peptide),SMILES
1.84E−01 ± 4.00E−02 pN,1.84×10^−1±4.00×10^−2 pN,2.45 times,–,–,CSCC[C@H](NC(=O)[C@H](CCC(=O)O)NC(=O)[C@H](CCCNC(=N)N)NC(=O)[C@H](CCC(=O)O)NC(=O)[C@H](CC(=O)O)NC(=O)[C@H](CCC(=O)O)NC(=O)[C@H](CC(C)C)NC(=O)[C@H](CCCNC(=N)N)NC(=O)[C@H](CCC(=O)O)NC(=O)[C@H](CC(N)=O)NC(=O)[C@H](CCSC)NC(=O)[C@@H](N)CCC(=O)O)C(=O)N[C@@H](CCCCN)C(=O)N[C@@H](C)C(=O)N[C@@H](CCC(=O)O)C(=O)N[C@@H](CC(C)C)C(=O)N[C@H](C(=O)N[C@@H](C)C(=O)N[C@@H](CCCCN)C(=O)O)[C@@H](C)O [Destabilizer]
6.28E−01 ± 4.32E−02 pN,–,–,1.89E−03,1.40 times,C[C@H](NC(=O)[C@H](CCCCN)NC(=O)[C@H](Cc1ccccc1)NC(=O)[C@H](CCCCN)NC(=O)[C@H](CCCCN)NC(=O)[C@H](CCCCN)NC(=O)[C@H](CCCCN)NC(=O)[C@H](CCCCN)NC(=O)[C@H](CCCCN)NC(=O)[C@H](CCCCN)NC(=O)[C@@H](N)CCCCN)C(=O)N[C@@H](CCCCN)C(=O)N[C@@H](CCCCN)C(=O)N[C@@H](CCCCN)C(=O)N[C@@H](CCCCN)C(=O)N[C@@H](CCCCN)C(=O)N[C@@H](CCCCN)C(=O)O [Stabilizer]
